Patent US9381164B2, “Silk nanospheres and microspheres and methods of making same” (TRUSTEES OF TUFTS COLLEGE, priority 2009, dated 2016)
Where a name gives a salt, the structure may show the parent alone. Read-outs that look alike come from different tables or passages of the source.

Key:
[1] = Drug loading in silk spheres (supernatant absorbance at 555 nm); assay type: physicochemical; conditions: drug/silk 1:100; spheres from 1.0% silk/4.0% PVA blend
Method: Tetramethylrhodamine conjugated bovine serum albumin (TMR-BSA, M.w.=66,000 Da), tetramethylrhodamine conjugated dextran (TMR-Dextran, M.w.=10,000 Da), and rhodamine B (RhB, M.w.=479 Da) were used as model drugs to study the drug loading in silk nano- and micro spheres. Stock solutions of drugs were prepared with a concentration of 5 mg/ml in PBS buffer, pH 7.4, and stored at −20° C. Certain amount of stock solution of drugs was added to silk fibroin solution, before the silk fibroin solution was prepared into silk nano- and micro spheres, to reach to a drug/silk ratio of 1:100 (weight ratio). After mixing, the drug loaded silk fibroin solution was used to blend with PVA solution following the steps described in the Example 2, without the sonication treatment. A 5 wt % of silk and PVA concentrations and a silk/PVA ratio of 1:4 were used in this example. At this concentration, the silk/PVA film with a silk/PVA ratio of 1/4 can generate silk spheres with narrower size distribution, perhaps because the blend film is easier to dissolve in water forming homogeneous sphere suspension.
To determine the amount of drug loading in silk spheres, the supernatants collected from the centrifugation steps were subjected to absorbance measurement at 555 nm. The amount of drug was calculated based on a standard curve obtained at the same condition. The amount of drug in silk spheres was calculated from the difference between the total amount used and the amount remained in the supernatants. For each drug loading, at least three samples were prepared in order to obtain a standard deviation. The pellets from the last step of centrifugation were suspended in 2 ml of PBS buffer, pH 7.4, and used for the following confocal microscopy and drug release studies in Example 6.

[2] = Cumulative drug release from silk spheres in PBS; assay type: physicochemical; conditions: for In vitro drug release: Microspheres, PVA blend film
Method: Silk spheres loaded with model drugs as described in Example 5 were lyophilized. 10 mg of lyophilized silk spheres were suspended in 1 ml of PBS buffer, pH 7.4. The samples were incubated at room temperature under slow shaking condition. A cumulative drug release profile at each different time point (1, 4, 8.5, 24, 48, 120, 192, 342 hr) was determined by following the steps of (a) centrifuging the samples at 12,000 rpm for 10 min with a Sigma ISS-113 microcentrifuge (Sigma Chemical Co., St. Louis, Mo.); (b) carefully transferring the supernatants to empty tubes, subjecting the collected supernatants to the absorbance measurement at a wavelength of 555 nm, calculating the amount of model drug based on a standard curve, and comparing the data at the current time point with the original amounted drug loaded in the spheres; (c) suspending the precipitated pellets in 1 ml of PBS buffer; and (d) repeating the steps of (a)-(c) at each time point to obtain a cumulative drug release profile. For each model drug, at least three samples were prepared in order to obtain a standard deviation.

[3] = cited from earlier work
[4] = Microspheres, Vibrational splitting of laminar jet

Row | In vitro drug release [2] | Molecule | loading efficiency [1] | In vitro drug release [3, 4] | also measured
1 | >4 weeks | CCN(CC)c1ccc2c(-c3ccccc3C(=O)O)c3ccc(=[N+](CC)CC)cc-3oc2c1.[Cl-] [RhB, rhodamine B] | approximately 95% | – | initial burst release ([2]; PBS pH 7.4, room temperature): about 1%
2 | – | O=C(O)c1ccccc1O [Salicylic acid] | – | 1 days | –
3 | – | CC(C)NCC(O)COc1cccc2ccccc12 (centres unmarked) [propranolol hydrochloride] | – | 20 days | –
4 | – | Cn1c(=O)c2[nH]cnc2n(C)c1=O [theophylline] | – | – | In vitro drug release ([3]; Layer-by-layer coatings, Coat drug tablet): >0.33 days
5 | 7 days | Dextran | – | – | –
6 | – | IGF-I: insulin like growth factor loaded in silk delivery systems | – | >7 weeks | In vitro drug release ([3]; Porous sponge, Drug encapsulated): >4 weeks
7 | – | tetramethylrhodamine conjugated dextran [TMR-dextran] | approximately 1.2% | – | total loading released within 2 weeks ([2]; PBS pH 7.4, room temperature, within 2 weeks): more than 60%

Row | Molecule | In vitro drug release [2] | loading efficiency [1] | In vitro drug release [3, 4] | also measured
8 | Tetramethylrhodamine conjugated bovine serum albumin [TMR-BSA] | >4 weeks | about 51% | – | initial burst release ([2]; PBS pH 7.4, room temperature): about 1%
